# Assay results reported in US20140336503A1, “RA[…] […] RELATED METHODS THEREOF” (The Regents of the University of Michigan, priority 2013, published 2014).
# Experiments:
# human cathepsin K = molecular target: T1, human cathepsin K (Homo sapiens, UniProt P43235); conditions: in vitro; cited from earlier work
# T1 sequence (P43235 115-329): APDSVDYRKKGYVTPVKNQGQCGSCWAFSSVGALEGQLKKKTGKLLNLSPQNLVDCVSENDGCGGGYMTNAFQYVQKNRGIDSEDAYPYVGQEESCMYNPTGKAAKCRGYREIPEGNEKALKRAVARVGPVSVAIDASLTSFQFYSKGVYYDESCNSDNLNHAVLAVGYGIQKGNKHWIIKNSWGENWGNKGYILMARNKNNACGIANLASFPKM
# [1] = whole body biodistribution of radioactivity after intravenous injection in rats; format: in vivo, rat; conditions: female rats, i.v.; for Tissue biodistribution, Bone, avg: femur in its entirety
# Method: The whole body biodistribution of radioactivity after intravenous injection of [^11C]1 was determined in rats. Animals (N =6, female CD rats) were lightly anesthetized (isoflurane) and injected via the tail vein with 1.85-4.44 MBq of radioligand formulated in 5% ethanol/saline. At selected times (5 and 40 min), groups (N=3) of animals were anesthetized, euthanized (decapitation) and samples of tissues removed. Tissue samples were weighed, counted for carbon-11, and the data calculated as % injected dose/g.
# osteoclasts in bone = test: microPET imaging of radioligand uptake into bone in normal rats, with blocking studies; format: in vivo; conditions: rat
# Text: Studies were done using imaging with Concorde Microsystems R4 and P4 PET scanners. Rats were anesthetized with isoflurane and maintained on 1% isoflurane throughout the imaging period. The animals were placed on their dorsal side in the scanner, and body temperature was maintained using a heating pad. A catheter was inserted into the tail vein for administration of radioactive solutions. Following a measured transmission scan, solutions of radioligands ([^11C]1 or ([^11C]2, 37-185 MBq in 0.5-1 mL volumes) were injected via the catheter, followed by a 1 ml flush of saline. For the blocking study, a 2 mg/kg dose of unlabeled compound 2 was administered 10 minutes prior to the injection of the radiolabeled [^11C]2. Emission data was collected for 60 minutes (12×5 min fames). The emission data was corrected for decay, dead time and random coincidences, then reconstructed using iterative ordered subset expectation maximization-maximum a posteriori (OSEM-MAP) yielding a reconstructed image resolution of approximately 1.4 mm. Volumetric regions of interest (ROIs) were defined using hand-drawn circular ROIs placed on the summed images, and the time-activity curves determined for each ROI (ASI Pro VM software: Siemens Medical Systems, Malvern, Pa.).
structure (smiles),measurement,setting,value
"COc1ccc(CCNC(=O)c2cnc(C#N)nc2NC2CCCCC2)cc1 [[^11C]1, 2-cyano-4-(cyclohexylamino)-N-(4-[^11C]methoxyphenethyl)-pyrimidine-5-carboxamide]",IC50,human cathepsin K,0.0222 nM
"[11CH3]Oc1ccc(CCNC(=O)c2cnc(C#N)nc2NC2CCCCC2)cc1 [[^11C]1, 2-cyano-4-(cyclohexylamino)-N-(4-[^11C]methoxyphenethyl)-pyrimidine-5-carboxamide]","Tissue biodistribution, Adrenal, avg",[1]; 5 min,3.57 % injected dose/g
same,"Tissue biodistribution, Blood, avg",[1]; 5 min,0.24 % injected dose/g
same,"Tissue biodistribution, Brain, avg",[1]; 5 min,0.43 % injected dose/g
same,"Tissue biodistribution, Heart, avg",[1]; 5 min,1.23 % injected dose/g
same,"Tissue biodistribution, Kidney, avg",[1]; 5 min,2.03 % injected dose/g
same,"Tissue biodistribution, Liver, avg",[1]; 5 min,3.02 % injected dose/g
same,"Tissue biodistribution, Lung, avg",[1]; 5 min,0.68 % injected dose/g
same,"Tissue biodistribution, Muscle, avg",[1]; 5 min,0.11 % injected dose/g
same,"Tissue biodistribution, Pancreas, avg",[1]; 5 min,1.68 % injected dose/g
same,"Tissue biodistribution, Spleen, avg",[1]; 5 min,1.03 % injected dose/g
same,"Tissue biodistribution, Bone, avg",[1]; 5 min,0.26 % injected dose/g
same,"Tissue biodistribution, Adrenal, avg",[1]; 40 min,0.51 % injected dose/g
same,"Tissue biodistribution, Blood, avg",[1]; 40 min,0.11 % injected dose/g
same,"Tissue biodistribution, Brain, avg",[1]; 40 min,0.11 % injected dose/g
same,"Tissue biodistribution, Heart, avg",[1]; 40 min,0.19 % injected dose/g
same,"Tissue biodistribution, Kidney, avg",[1]; 40 min,0.41 % injected dose/g
same,"Tissue biodistribution, Liver, avg",[1]; 40 min,0.68 % injected dose/g
same,"Tissue biodistribution, Lung, avg",[1]; 40 min,0.16 % injected dose/g
same,"Tissue biodistribution, Muscle, avg",[1]; 40 min,0.11 % injected dose/g
same,"Tissue biodistribution, Pancreas, avg",[1]; 40 min,0.56 % injected dose/g
same,"Tissue biodistribution, Spleen, avg",[1]; 40 min,0.22 % injected dose/g
same,"Tissue biodistribution, Bone, avg",[1]; 40 min,0.14 % injected dose/g
same,uptake and retention into target bone regions with low specific activity dose,"osteoclasts in bone; 10.8 GBq/μmol, co-injection of 14 micrograms/kg of unlabeled 1",nearly full block
same,uptake and retention after pretreatment with unlabeled CCX,osteoclasts in bone; microPET,reduced
same,"uptake in the growth plates (proximal humerus, distal ulnar, carpal, distal femur, proximal tibia, caudal vertebrae)",osteoclasts in bone; microPET,high uptake
"CC(C)(C)CNc1nc(C#N)ncc1C(=O)NCCc1ccc(O[11CH3])cc1 [[^11C]2, 2-cyano-N-(4-[^11C]methoxyphenethyl)-4-(neopentylamino)pyrimidine-5-carboxamide]",bone uptake of radioactivity after blocking dose of unlabeled ligand 2,"osteoclasts in bone; 2 mg/kg unlabeled 2, ten minutes prior to injection",reduction of bone uptake of radioactivity to essentially levels equivalent to background in non-target tissues
"COc1ccc(CCNC(=O)c2cnc(C#N)nc2NCC(C)(C)C)cc1 [[^11C]2, 2-cyano-N-(4-[^11C]methoxyphenethyl)-4-(neopentylamino)pyrimidine-5-carboxamide]",IC50,human cathepsin K,0.003 nM
